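Method: 48-hour compound exposure of cells in 96-well plates, five concentrations, linear interpolation of endpoints. GI50 = concentration required for 50% inhibition of growth. TGI marks complete inhibition of growth.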
Assays:
Assay in all cases: growth of human tumour cells (NCI), 48 h; in the data active = GI50 below about 0.43 µM; inactive = the rest
NCI-H522 lung = test system: NCI-H522 lung
M14 melanoma = test system: M14 melanoma
MALME-3M melanoma = test system: MALME-3M melanoma
RPMI-8226 leukemia = test system: RPMI-8226 leukemia
MCF7 breast = test system: MCF7 breast
HOP-92 NSCLC = test system: HOP-92 NSCLC
UACC-62 melanoma = test system: UACC-62 melanoma
CCRF-CEM leukemia = test system: CCRF-CEM leukemia
NCI-H23 lung = test system: NCI-H23 lung
NCI-H460 lung = test system: NCI-H460 lung
EKVX NSCLC = test system: EKVX NSCLC
PC-3 prostate = test system: PC-3 prostate
T-47D breast = test system: T-47D breast
SK-OV-3 ovarian = test system: SK-OV-3 ovarian
HCT-15 colon = test system: HCT-15 colon
SF-539 CNS = test system: SF-539 CNS
TK-10 renal = test system: TK-10 renal
HS 578T breast = test system: HS 578T breast
SF-295 CNS = test system: SF-295 CNS
KM12 colon = test system: KM12 colon
HCC-2998 colon = test system: HCC-2998 colon
RXF 393 renal = test system: RXF 393 renal
MDA-N = test system: MDA-N
MOLT-4 leukemia = test system: MOLT-4 leukemia
BT-549 breast = test system: BT-549 breast
786-0 renal = test system: 786-0 renal
HOP-62 NSCLC = test system: HOP-62 NSCLC
HL-60(TB) leukemia = test system: HL-60(TB) leukemia
MDA-MB-231 breast = test system: MDA-MB-231 breast
LOX IMVI melanoma = test system: LOX IMVI melanoma
UO-31 renal = test system: UO-31 renal
SNB-75 CNS = test system: SNB-75 CNS
OVCAR-5 ovarian = test system: OVCAR-5 ovarian
IGROV1 ovarian = test system: IGROV1 ovarian
SNB-19 CNS = test system: SNB-19 CNS
U251 CNS = test system: U251 CNS
NCI/ADR-RES ovarian = test system: NCI/ADR-RES ovarian
HT29 colon = test system: HT29 colon
SF-268 CNS = test system: SF-268 CNS
ACHN renal = test system: ACHN renal
MDA-MB-435 = test system: MDA-MB-435
OVCAR-8 ovarian = test system: OVCAR-8 ovarian
SW-620 colon = test system: SW-620 colon
SK-MEL-28 melanoma = test system: SK-MEL-28 melanoma
UACC-257 melanoma = test system: UACC-257 melanoma
SK-MEL-5 melanoma = test system: SK-MEL-5 melanoma
DU-145 prostate = test system: DU-145 prostate
K-562 leukemia = test system: K-562 leukemia
HCT-116 colon = test system: HCT-116 colon
OVCAR-3 ovarian = test system: OVCAR-3 ovarian
A498 renal = test system: A498 renal
COLO 205 colon = test system: COLO 205 colon
SK-MEL-2 melanoma = test system: SK-MEL-2 melanoma
CAKI-1 renal = test system: CAKI-1 renal
SN12C renal = test system: SN12C renal
A549 NSCLC = test system: A549 NSCLC
SR leukemia = test system: SR leukemia
NCI-H226 lung = test system: NCI-H226 lung
OVCAR-4 ovarian = test system: OVCAR-4 ovarian

c1ccc2c(c1)CN1CCCC1CN2 (stereo not given)
> 100 µM: TGI (NCI-H522 lung) | TGI (M14 melanoma) | TGI (MALME-3M melanoma) | TGI (RPMI-8226 leukemia) | TGI (MCF7 breast) | TGI (HOP-92 NSCLC) | TGI (UACC-62 melanoma) | TGI (CCRF-CEM leukemia) | TGI (NCI-H23 lung) | TGI (NCI-H460 lung) | TGI (EKVX NSCLC) | TGI (PC-3 prostate) | TGI (T-47D breast) | TGI (SK-OV-3 ovarian) | TGI (HCT-15 colon) | TGI (SF-539 CNS) | TGI (TK-10 renal) | TGI (HS 578T breast) | TGI (SF-295 CNS) | TGI (KM12 colon) | TGI (HCC-2998 colon) | TGI (RXF 393 renal) | TGI (MDA-N) | TGI (MOLT-4 leukemia) | TGI (BT-549 breast) | TGI (786-0 renal) | TGI (HOP-62 NSCLC) | TGI (HL-60(TB) leukemia) | TGI (MDA-MB-231 breast) | TGI (LOX IMVI melanoma) | TGI (UO-31 renal) | TGI (SNB-75 CNS) | TGI (OVCAR-5 ovarian) | TGI (IGROV1 ovarian) | TGI (SNB-19 CNS) | TGI (U251 CNS) | TGI (NCI/ADR-RES ovarian) | TGI (HT29 colon) | TGI (SF-268 CNS) | TGI (ACHN renal) | TGI (MDA-MB-435) | TGI (OVCAR-8 ovarian) | TGI (SW-620 colon) | TGI (SK-MEL-28 melanoma) | TGI (UACC-257 melanoma) | TGI (SK-MEL-5 melanoma) | TGI (DU-145 prostate) | TGI (K-562 leukemia) | TGI (HCT-116 colon) | TGI (OVCAR-3 ovarian) | TGI (A498 renal) | TGI (COLO 205 colon) | TGI (SK-MEL-2 melanoma) | TGI (CAKI-1 renal) | TGI (SN12C renal) | TGI (A549 NSCLC) | TGI (SR leukemia) | TGI (NCI-H226 lung) | TGI (OVCAR-4 ovarian)

O=C(OC1C=C=CS(=O)(=O)CC#C/C=C\1)c1cnc2ccccc2n1 (stereo not given)
90.1 µM: TGI (HOP-92 NSCLC)
> 100 µM: TGI (M14 melanoma) | TGI (MALME-3M melanoma) | TGI (RPMI-8226 leukemia) | TGI (MCF7 breast) | TGI (UACC-62 melanoma) | TGI (CCRF-CEM leukemia) | TGI (NCI-H23 lung) | TGI (NCI-H460 lung) | TGI (EKVX NSCLC) | TGI (PC-3 prostate) | TGI (T-47D breast) | TGI (SK-OV-3 ovarian) | TGI (HCT-15 colon) | TGI (SF-539 CNS) | TGI (TK-10 renal) | TGI (HS 578T breast) | TGI (SF-295 CNS) | TGI (KM12 colon) | TGI (HCC-2998 colon) | TGI (RXF 393 renal) | TGI (MDA-N) | TGI (MOLT-4 leukemia) | TGI (BT-549 breast) | TGI (HOP-62 NSCLC) | TGI (HL-60(TB) leukemia) | TGI (MDA-MB-231 breast) | TGI (LOX IMVI melanoma) | TGI (UO-31 renal) | TGI (SNB-75 CNS) | TGI (OVCAR-5 ovarian) | TGI (IGROV1 ovarian) | TGI (SNB-19 CNS) | TGI (U251 CNS) | TGI (NCI/ADR-RES ovarian) | TGI (HT29 colon) | TGI (SF-268 CNS) | TGI (ACHN renal) | TGI (MDA-MB-435) | TGI (OVCAR-8 ovarian) | TGI (SW-620 colon) | TGI (SK-MEL-28 melanoma) | TGI (UACC-257 melanoma) | TGI (SK-MEL-5 melanoma) | TGI (DU-145 prostate) | TGI (K-562 leukemia) | TGI (HCT-116 colon) | TGI (OVCAR-3 ovarian) | TGI (A498 renal) | TGI (COLO 205 colon) | TGI (SK-MEL-2 melanoma) | TGI (CAKI-1 renal) | TGI (SN12C renal) | TGI (A549 NSCLC) | TGI (SR leukemia) | TGI (NCI-H226 lung) | TGI (OVCAR-4 ovarian)
51.6 µM: TGI (NCI-H522 lung)

COC(=O)Cc1c([C@H]2[C@H](CC(=O)OC)c3ccccc3N2C(=O)C(F)(F)F)[nH]c2ccccc12
55 µM: TGI (NCI-H460 lung)
84.6 µM: TGI (SNB-75 CNS)
91.3 µM: TGI (NCI/ADR-RES ovarian)
> 100 µM: TGI (RPMI-8226 leukemia) | TGI (MCF7 breast) | TGI (HOP-92 NSCLC) | TGI (NCI-H23 lung) | TGI (EKVX NSCLC) | TGI (PC-3 prostate) | TGI (T-47D breast) | TGI (SK-OV-3 ovarian) | TGI (HCT-15 colon) | TGI (SF-539 CNS) | TGI (TK-10 renal) | TGI (HCC-2998 colon) | TGI (MDA-N) | TGI (786-0 renal) | TGI (HOP-62 NSCLC) | TGI (HL-60(TB) leukemia) | TGI (LOX IMVI melanoma) | TGI (UO-31 renal) | TGI (OVCAR-5 ovarian) | TGI (IGROV1 ovarian) | TGI (SNB-19 CNS) | TGI (HT29 colon) | TGI (SF-268 CNS) | TGI (ACHN renal) | TGI (OVCAR-8 ovarian) | TGI (SW-620 colon) | TGI (SK-MEL-28 melanoma) | TGI (UACC-257 melanoma) | TGI (DU-145 prostate) | TGI (K-562 leukemia) | TGI (HCT-116 colon) | TGI (A498 renal) | TGI (CAKI-1 renal) | TGI (SN12C renal) | TGI (A549 NSCLC) | TGI (NCI-H226 lung) | TGI (OVCAR-4 ovarian)
56.2 µM: TGI (NCI-H522 lung) | TGI (CCRF-CEM leukemia)
24.8 µM: TGI (SK-MEL-5 melanoma)
38 µM: TGI (OVCAR-3 ovarian)
73.4 µM: TGI (MDA-MB-231 breast)
30.3 µM: TGI (UACC-62 melanoma)
92.1 µM: TGI (HS 578T breast)
90.6 µM: TGI (MALME-3M melanoma)
47.8 µM: TGI (U251 CNS)
80.7 µM: TGI (SF-295 CNS)
58.3 µM: TGI (SK-MEL-2 melanoma)
98.4 µM: TGI (RXF 393 renal)
97.2 µM: TGI (BT-549 breast)
62 µM: TGI (MDA-MB-435)
36.1 µM: TGI (COLO 205 colon)
38.4 µM: TGI (MOLT-4 leukemia)
82.3 µM: TGI (SR leukemia)

O=c1c(Br)c(-c2ccccc2)[nH]c2ccccc12
11.8 µM: TGI (MDA-MB-231 breast)
0.892 µM: TGI (CAKI-1 renal)
1.12 µM: TGI (A549 NSCLC)
29.9 µM: TGI (SK-MEL-5 melanoma)
63.8 µM: TGI (KM12 colon)
98 µM: TGI (UACC-257 melanoma)
inactive: GI50 (NCI-H522 lung) > 100 µM | GI50 (HOP-92 NSCLC) 19 µM | GI50 (NCI-H460 lung) 3.54 µM | GI50 (EKVX NSCLC) 41.5 µM | GI50 (PC-3 prostate) 23.6 µM | GI50 (T-47D breast) 36.4 µM | GI50 (SF-295 CNS) 32.9 µM | GI50 (KM12 colon) 5.63 µM | GI50 (HCC-2998 colon) > 100 µM | GI50 (MOLT-4 leukemia) 20.8 µM | GI50 (SNB-75 CNS) 63.1 µM | GI50 (OVCAR-5 ovarian) > 100 µM | GI50 (IGROV1 ovarian) > 89.4 µM | GI50 (SNB-19 CNS) > 100 µM | GI50 (SF-268 CNS) > 100 µM | GI50 (SK-MEL-5 melanoma) 13.6 µM | GI50 (K-562 leukemia) 28.9 µM | GI50 (A498 renal) 31.6 µM | GI50 (SK-MEL-2 melanoma) > 100 µM | GI50 (SN12C renal) > 100 µM | GI50 (NCI-H226 lung) 37.1 µM
56.6 µM: TGI (HL-60(TB) leukemia)
> 85.4 µM: TGI (MDA-N)
> 78.3 µM: TGI (PC-3 prostate)
> 100 µM: TGI (NCI-H522 lung) | TGI (M14 melanoma) | TGI (MALME-3M melanoma) | TGI (RPMI-8226 leukemia) | TGI (MCF7 breast) | TGI (HOP-92 NSCLC) | TGI (UACC-62 melanoma) | TGI (CCRF-CEM leukemia) | TGI (NCI-H23 lung) | TGI (NCI-H460 lung) | TGI (EKVX NSCLC) | TGI (T-47D breast) | TGI (SK-OV-3 ovarian) | TGI (HCT-15 colon) | TGI (SF-539 CNS) | TGI (TK-10 renal) | TGI (HS 578T breast) | TGI (SF-295 CNS) | TGI (HCC-2998 colon) | TGI (RXF 393 renal) | TGI (BT-549 breast) | TGI (HOP-62 NSCLC) | TGI (LOX IMVI melanoma) | TGI (SNB-75 CNS) | TGI (OVCAR-5 ovarian) | TGI (IGROV1 ovarian) | TGI (SNB-19 CNS) | TGI (U251 CNS) | TGI (NCI/ADR-RES ovarian) | TGI (HT29 colon) | TGI (SF-268 CNS) | TGI (ACHN renal) | TGI (MDA-MB-435) | TGI (OVCAR-8 ovarian) | TGI (SW-620 colon) | TGI (SK-MEL-28 melanoma) | TGI (DU-145 prostate) | TGI (K-562 leukemia) | TGI (HCT-116 colon) | TGI (OVCAR-3 ovarian) | TGI (A498 renal) | TGI (COLO 205 colon) | TGI (SK-MEL-2 melanoma) | TGI (SN12C renal) | TGI (SR leukemia) | TGI (NCI-H226 lung) | TGI (OVCAR-4 ovarian)
> 75.6 µM: TGI (MOLT-4 leukemia)
6.58 µM: TGI (UO-31 renal)
active: GI50 (CAKI-1 renal) 0.066 µM | GI50 (A549 NSCLC) 0.168 µM

From PubChem BioAssay (NCI)
